For 22 compounds, Kd results are on record in US20240197694A1, “MODIFIED PROTEINS AND PROTEIN BINDERS” (Cullgen (Shanghai), Inc., priority 2021, published 2024).

One may read the Kd as a measure of binding affinity in units of concentration. Read a high Kd as lower affinity.

Each structure is given as a SMILES string.

In the test the target is T1, DCAF1 (1058-1396) (Homo sapiens, UniProt Q9Y4B6).
T1 construct: a fragment of a DCAF1 protein that includes amino acid residues A1058 to E1396; His6 (N, cleaved yes); made in house; host or cells: Sf9 insect cells (Bac-to-Bac baculovirus, pFastBacHT vector)
T1 sequence (Q9Y4B6 1058-1396): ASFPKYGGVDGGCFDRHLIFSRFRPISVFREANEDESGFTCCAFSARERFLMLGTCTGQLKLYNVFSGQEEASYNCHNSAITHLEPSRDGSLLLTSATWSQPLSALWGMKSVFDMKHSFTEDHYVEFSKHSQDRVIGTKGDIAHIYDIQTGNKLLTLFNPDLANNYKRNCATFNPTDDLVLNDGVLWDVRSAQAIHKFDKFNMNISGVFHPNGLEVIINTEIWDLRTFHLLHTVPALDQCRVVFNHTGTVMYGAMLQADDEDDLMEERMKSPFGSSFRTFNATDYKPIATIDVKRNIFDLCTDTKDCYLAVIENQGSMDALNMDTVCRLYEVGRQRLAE
The experiment in a line: Surface plasmon resonance (SPR) binding assay, compound binding to DCAF1. The settings on record: immobilized DCAF1 (1058-1396), steady state affinity model, 25° C. A digest of the protocol: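 Amine-coupled DCAF1 (1058-1396), Sf9-expressed, tag removed, at 9,000-12,000 RU; HBS-EP pH 7.4 with 2% DMSO, 25° C. Compounds at 100-3.125 μM (6-point, two-fold) injected multi-cycle, 60 s association/dissociation, 30 μL/min; double-referenced, solvent-corrected, Kd from steady-state affinity fit.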
On the technique in general: In SPR one partner is held on a chip, and binding of the other changes the refractive index at the surface.
`Cc1ccc2c(c1)C1CN(C)CCC1N2C(=O)/C=C/c1ccc(F)cc1` (stereo not shown) [CPD-084, (E)-1-(2,8-dimethyl-1,2,3,4,4a,9b-hexahydro-5H-pyrido [4,3-b]indol-5-yl)-3-(4-fluorophenyl)prop-2-en-1-one] had a Kd of 40 to 70 µM.

Compound `COc1ccc(/C=C/C(=O)N2c3ccc(C)cc3C3CN(C)CCC32)cc1` (stereo not shown) [CPD-085, (E)-1-(2,8-dimethyl-1,2,3,4,4a,9b-hexahydro-5H-pyrido [4,3-b]indol-5-yl)-3-(4-methoxyphenyl)prop-2-en-1-one] showed a dissociation constant Kd greater than 100 µM. In turn, `Cc1ccc2c(c1)C1CN(C)CCC1N2C(=O)/C=C/c1ccc2c(c1)OCO2` (stereo not shown) [CPD-086, (E)-3-(benzo[d][1,3]dioxol-5-yl)-1-(2,8-dimethyl-1,2,3,4,4a,9b-hexahydro-5H-pyrido[4,3-b]indol-5-yl) prop-2-en-1-one] returned a Kd greater than 100 µM.

In the case of `Cc1ccc2c(c1)C1CN(C)CCC1N2C(=O)/C=C/c1ccc(S(=O)(=O)N2CCOCC2)cc1` (stereo not shown) [CPD-087, (E)-1-(2,8-dimethyl-1,2,3,4,4a,9b-hexahydro-5H-pyrido [4,3-b]indol-5-yl)-3-(4-(morpholinosulfonyl)phenyl)prop-2-en-1-one], the dissociation constant Kd is 40 to 70 µM. For `Cc1ccc2c(c1)C1CN(C)CCC1N2C(=O)/C(=C/c1ccc(Cl)cc1)c1ccc(F)cc1` (stereo not shown) [CPD-088, (E)-3-(4-chlorophenyl)-1-(2,8-dimethyl-1,2,3,4,4a,9b-hexahydro-5H-pyrido[4,3-b]indol-5-yl)-2-(4-fluorophenyl)prop-2-en-1-one], the Kd is 40 to 70 µM. In the case of `CN(C)C(=O)c1ccc(NCC2Cc3ccccc3CN2C)nc1` (stereo not shown) [CPD-089, N,N-dimethyl-6-(((2-methyl-1,2,3,4-tetrahydroisoquinolin-3-yl)methyl)amino)nicotinamide] it was 70 to 100 µM; in that of `CN1Cc2ccccc2CC1CNc1nccc(-c2ccncc2)n1` (stereo not shown) [CPD-090, N-((2-methyl-1,2,3,4-tetrahydroisoquinolin-3-yl)methyl)-4-(pyridin-4-yl)pyrimidin-2-amine], 40 to 70 µM; in that of `CCn1ccnc1CN(C)CC1Cc2ccccc2CN1C` (stereo not shown) [CPD-091, 1-(1-ethyl-1H-imidazol-2-yl)-N-methyl-N-((2-methyl-1,2,3,4-tetrahydroisoquinolin-3-yl)methyl)methanamine], 70 to 100 µM. Consider `CN1Cc2ccccc2CC1CNC(=O)c1nc(=N)[nH]c2c1CCCC2` (stereo not shown) [CPD-092, 2-imino-N-((2-methyl-1,2,3,4-tetrahydroisoquinolin-3-yl)methyl)-1,2,5,6,7,8-hexahydroquinazoline-4-carboxamide], for which the equilibrium dissociation constant (Kd) lay within 40 to 70 µM.

In turn, `Cc1cc(N)n(CC(=O)N(C)CC2Cc3ccccc3CN2C)n1` (stereo not shown) [CPD-093, 2-(5-amino-3-methyl-1H-pyrazol-1-yl)-N-methyl-N-((2-methyl-1,2,3,4-tetrahydroisoquinolin-3-yl)methyl)acetamide] yielded a Kd of 40 to 70 µM. To `Cc1nc(N)nc(C)c1CC(=O)NCC1Cc2ccccc2CN1C` (stereo not shown) [CPD-094, 2-(2-amino-4,6-dimethylpyrimidin-5-yl)-N-((2-methyl-1,2,3,4-tetrahydroisoquinolin-3-yl)methyl)acetamide] belongs 40 to 70 µM. To `CN(CC1Cc2ccccc2CN1C)C(=O)Cn1cnc2ccccc21` (stereo not shown) [CPD-095, 2-(1H-benzo[d]imidazol-1-yl)-N-methyl-N-((2-methyl-1,2,3,4-tetrahydroisoquinolin-3-yl)methyl)acetamide] belongs 40 to 70 µM; to `CN1Cc2ccccc2CC1CNC(=O)Nc1ccc2c(c1)nnn2C` (stereo not shown) [CPD-096, 1-((2-methyl-1,2,3,4-tetrahydroisoquinolin-3-yl)methyl)-3-(1-methyl-1H-benzo [d][1,2,3]triazol-5-yl)urea], greater than 100 µM; to `CN(CC1Cc2ccccc2CN1C)C(=O)/C=C/c1cc(CO)cs1` (stereo not shown) [CPD-097, (E)-3-(4-(hydroxymethyl)thiophen-2-yl)-N-methyl-N-((2-methyl-1,2,3,4-tetrahydroisoquinolin-3-yl)methyl)acrylamide], greater than 100 µM. In turn, `O=C(NCCn1ncc2ccccc2c1=O)C1Cc2ccccc2CN1` (stereo not shown) [CPD-098, N-(2-(1-oxophthalazin-2(1H)-yl)ethyl)-1,2,3,4-tetrahydroisoquinoline-3-carboxamide] displayed a Kd of 40 to 70 µM.

On to `Cn1cccc1CNCC1CC(c2nncn2C)CC1O` (stereo not shown) [CPD-099, 2-((((1-methyl-1H-pyrrol-2-yl)methyl)amino)methyl)-4-(4-methyl-4H-1,2,4-triazol-3-yl)cyclopentan-1-ol], for which the dissociation constant Kd lay within 40 to 70 µM. On to `CCCCNCc1cccn1-c1ccccc1` [CPD-100, N-((1-phenyl-1H-pyrrol-2-yl)methyl)butan-1-amine], for which the Kd lay within 70 to 100 µM. Compound `OCCCNCc1cccn1-c1ccccc1` [CPD-101, 3-(((1-phenyl-1H-pyrrol-2-yl)methyl)amino)propan-1-ol] yielded a Kd greater than 100 µM. With `Oc1ccc(F)c(CNCc2cnc[nH]2)c1` [CPD-102, 3-((((1H-imidazol-5-yl)methyl)amino)methyl)-4-fluorophenol], the Kd is greater than 100 µM.

In turn, `OCCOc1cccc(CNCc2cnc[nH]2)c1` [CPD-103, 2-(3-((((1H-imidazol-5-yl)methyl)amino)methyl)phenoxy)ethan-1-ol] showed a Kd greater than 100 µM. In the case of `COc1ccc2cc(CNCc3cncn3CC(C)C)c(=O)[nH]c2c1` [CPD-104, 3-((((1-isobutyl-1H-imidazol-5-yl)methyl)amino)methyl)-7-methoxyquinolin-2(1H)-one] it was 70 to 100 µM; in that of `OCC1(CNCc2cnc[nH]2)CC1` [CPD-105, (1-((((1H-imidazol-5-yl)methyl)amino)methyl)cyclopropyl) methanol], no more than 40 µM.
